These are literature values, as cited in patent US8765470B2, “Reprogramming immortalized B-cells to induced pluripotent stem cells” (Cellular Dynamics International, Inc., priority 2010, dated 2014).

One data set concerns EBV replication. Particulars: in vitro; Lin et al., 1983.
In the next data set the test system is EBV. Particulars: Norseen et al., 2009.
The conditions of data set [1]: Kira et al., 2000.
The next data set has as its system Epstein-Barr virus (EBV). Particulars: anti-EBV activity; Kira et al., 2000; read-out: 50% effective concentration.

Turning to `Nc1nc(=O)n([C@@H]2O[C@H](CO)[C@@H](O)[C@@H]2F)cc1I` [1-(2-deoxy-2-fluoro-beta-D-arabinofuranosyl)-5-iodocytosine], the “inhibition of EBV replication” value with EBV replication is given as “potent inhibitors”.

Turning to `CN(C)c1ccc(Nc2c3ccc(NC(=O)CCN4CCCC4)cc3nc3cc(NC(=O)CCN4CCCC4)ccc23)cc1` [BRACO-19], the “effect on EBV proliferation” value in the data set on EBV was “block EBV proliferation”.

In the case of `O=c1[nH]c(=O)n([C@H]2C[C@H](O)[C@@H](CO)O2)cc1/C=C/Br` [E-5-(2-bromovinyl)-2′-deoxyuridine], in the data set on EBV replication, the “inhibition of EBV replication” value is listed as “potent inhibitors”.

As to `O=c1[nH]c(=O)n([C@@H]2CO[C@H](CO)O2)cc1I` [beta-L-5-Iododioxolane uracil], the 50% cytotoxic concentration in data set [1] is 1,000 microM. Further, in the data set with Epstein-Barr virus (EBV), the EC50 is 0.03 µM.

On to `C[n+]1cccc(-c2c3nc(c(-c4ccc[n+](C)c4)c4ccc([nH]4)c(-c4ccc[n+](C)c4)c4nc(c(-c5ccc[n+](C)c5)c5ccc2[nH]5)C=C4)C=C3)c1` [TMPyP3], for which the “effect on EBV proliferation” value in the data set on EBV was “block EBV proliferation”.

Consider `C[n+]1ccc(-c2c3nc(c(-c4cc[n+](C)cc4)c4ccc([nH]4)c(-c4cc[n+](C)cc4)c4ccc([nH]4)c(-c4cc[n+](C)cc4)c4nc2C=C4)C=C3)cc1` [TMPyP4], for which the “effect on EBV proliferation” value with EBV is given as “block EBV proliferation”.

Consider `Cc1cn([C@@H]2O[C@H](CO)[C@@H](O)[C@@H]2F)c(=O)[nH]c1=O` [1-(2-deoxy-2-fluoro-beta-D-arabinofuranosyl)-5-methyluracil], for which the “inhibition of EBV replication” value with EBV replication was “potent inhibitors”.
